Experimental findings from patent US20220280594A1, “APPLICATION OF POLYPEPTIDE OR DERIVATIVE THEREOF” (CHENGDU HUITAI BIOMEDICINE CO., LTD., priority 2019, published 2022) are described below.

Common to all, as to type: cell-based
In assay [1] the test system is human lung cancer cells (95D). Kind of assay: scratch assay, migration of 95D cells. The conditions noted are these: 10 μM, 48 hours, control group 55.3 ± 3.19. The method, then: (§1) In the scratch assay, the cell migration rate was negatively correlated with the inhibitory effect of the drug component on tumor cell migration ability. The cell migration inhibition experiment was described as follows: tumor cells were cultured in vitro, cells in logarithmic growth phase were collected and seeded evenly in a 24-well plate at a density of 1-2×10^5 cells/well; the cells were cultured in a cell incubator until a monolayer was formed; a scratch tool was used to make a “-” (straight) scratch on the monolayer of cells; the cells were washed 1-3 times with PBS, and a medium (with 2% fetal bovine serum) containing specific test components was added to the culture. Experimental grouping: PBS control group; polypeptide or derivative thereof treatment group (N1-N54), 10 μM. Three independent parallel wells were set up in each group, and the cells were cultured continuously in a cell incubator for 48 hours. […] At least 3 representative images for each well were taken. ImageJ software was used to count the migration distance of the cells, and the cell migration rate was calculated as: cell migration rate (%)=(width of original scratch−width of current scratch)/width of original scratch×100.
This example was a scratch assay to evaluate the inhibitory effect of the polypeptide or derivative thereof (N1-N54) on the migration ability of human lung cancer cells (95D). The experimental method was as described in Example 2.

Assay [2] relates to human liver adenocarcinoma cells (SK-HEP-1). In words: transwell migration assay, SK-HEP-1 cells. The conditions noted are these: SK-HEP-1 transwell migration, 10 μM, 24 hours; control group 1 782 ± 108, control group 2 768 ± 86. As to the method:
The Transwell chamber system was used in the transwell cell migration experiment. The chamber has an upper layer and a lower layer, which are separated by an artificial semipermeable membrane in the middle. Cells that have migrated through the semi-permeable membrane will attach to the lower surface of the semi-permeable membrane. The migration ability is evaluated by counting the number of cells on the lower surface of the semi-permeable membrane. The number of cells that have migrated is negatively correlated with the inhibitory effect of the drug on the migration ability of the tumor cells. Transwell migration assay was performed as follows: tumor cells were cultured in vitro, cells in logarithmic growth phase were collected, and cell suspension was prepared with fresh serum-free medium at a density of 2-3×10^5 cells/mL. Cells were inoculated, 100 μL/well cell suspension (serum-free medium) in the upper chamber and 600 μL/well complete culture medium in the lower chamber. After incubated in 37° C., 5% CO2 incubator for 4-5 hours, serum-free medium (100 μL/well) was added to the control group, and serum-free medium containing polypeptide or derivative thereof (N1-N54) was added to the upper chamber of the treatment group (100 μL/well), the final concentration of the peptide or derivative thereof in the upper chamber was 10 μM. The cells were incubated continuously for 24 hours, and then fixed with methanol and stained with crystal violet. Images were taken under a microscope and the number of migrated cells was counted with ImageJ.
This example was a transwell cell migration experiment to evaluate the inhibitory effect of the polypeptide or derivative thereof (N1-N54) on the migration ability of human liver adenocarcinoma cells (SK-HEP-1). The experimental method was as described in Example 3.

In assay [3] the test system is human non-small cell lung cancer cells (A549). Kind of assay: scratch assay, migration of A549 cells. The conditions noted are these: A549, 10 μM, 48 hours; control group 75.31 ± 8.19. The method, then:
as §1
This example was a scratch assay to evaluate the inhibitory effect of the polypeptide or derivative thereof (N1-N54) on the migration ability of human non-small cell lung cancer (A549). The experimental method was as described in Example 2.

Ends that are not written are not given here. PEG = not defined here

Consider “N33: SEQ ID NO: 1 with deletion of positions 1-5, addition of one amino acid and PEG modification at the carboxyl terminal (LAKENVTQDAEDNC-{PEG}; reading uncertain)”, for which the entries for the “Migration rate (%) (mean ± SD, P)” value in assay [1] and in assay [3] were 30.73 ± 5.87,** % and 33.22 ± 4.51,** %, respectively. For the same substance, in assay [2], the “Number of cells (mean ± SD, P), migrated cells” value (shortened to “Number of cells (mean ± SD, P)”) is 354 ± 31,***.
On the same counts, the results for “N34: SEQ ID NO: 1 with A15R, addition of one amino acid at the carboxyl terminal, PEG modification at the amino terminal ({PEG}-YRVRFLAKENVTQDREDNC; reading uncertain)” are 13.53 ± 4.35,*** %, 30.51 ± 8.12,** % and 260 ± 32,****.
On the same counts, the results for “N35: SEQ ID NO: 1 with A15R, addition of one amino acid and PEG modification at the carboxyl terminal (YRVRFLAKENVTQDREDNC-{PEG}; reading uncertain)” are 22.47 ± 5.12,*** %, 32.27 ± 9.53,** % and 315 ± 36,***.
The matching figures for “N37: SEQ ID NO: 1 with addition of two amino acids to the carboxyl terminal and PEG modification at the amino terminal ({PEG}-YRVRFLAKENVTQDAEDNCT; reading uncertain)”: 27.76 ± 6.51,** %, 49.45 ± 10.09,* % and 84 ± 7,****.
As to “N38: SEQ ID NO: 1 with one amino acid added at each terminal and PEG modification at the carboxyl terminal (FYRVRFLAKENVTQDAEDNC-{PEG}; reading uncertain)”, the “Migration rate (%) (mean ± SD, P)” value in assay [1] is listed as 37.60 ± 3.67,** %; in assay [3], 46.92 ± 4.49,** %. Moreover, the “Number of cells (mean ± SD, P)” value in assay [2] is reported as 380 ± 32,***.
The matching figures for “N39: SEQ ID NO: 1 with addition of two amino acids and PEG modification at the carboxyl terminal (YRVRFLAKENVTQDAEDNTC-{PEG}; reading uncertain)”: 43.19 ± 4.82,* %, 56.39 ± 6.30,* % and 261 ± 25,****.
The matching figures for “N40: SEQ ID NO: 1 with deletion of positions 1-5 and 15-18, PEG at the amino terminal, two amino acids added at the carboxyl terminal ({PEG}-LAKENVTQDRC; reading uncertain)”: 36.23 ± 5.05,** %, 20.15 ± 8.91,** % and 290 ± 33,****.
The matching figures for “N41: SEQ ID NO: 1 with addition of two amino acids at the amino terminal, deletion of position 18, PEG at the carboxyl terminal (FRYRVRFLAKENVTQDAED-{PEG}; reading uncertain)”: 32.62 ± 3.79,** %, 56.03 ± 3.75,* % and 280 ± 24,****.
For “N42: SEQ ID NO: 1 with deletion of positions 1-5 and 15-18, PEG at the amino terminal, one amino acid added at the carboxyl terminal ({PEG}-LAKENVTQDR; reading uncertain)”, the “Migration rate (%) (mean ± SD, P)” value in assay [1] is 35.42 ± 4.97,** %; in assay [3], 60.74 ± 3.40,* %. In assay [2], the “Number of cells (mean ± SD, P)” value was 106 ± 17,****.
On the same counts, the results for “N43: SEQ ID NO: 1 with addition of one amino acid at the amino terminal, deletion of position 18, PEG at the carboxyl terminal (RYRVRFLAKENVTQDAED-{PEG}; reading uncertain)” are 30.38 ± 4.71,** %, 57.74 ± 5.39,* % and 157 ± 29,****.
The matching figures for “N45: SEQ ID NO: 1 with V11R, deletion of positions 1-5 and 15-18, PEG modification at the carboxyl terminal (LAKENRTQD-{PEG}; reading uncertain)”: 33.76 ± 5.38,** %, 56.03 ± 4.21,* % and 162 ± 15,****.
The matching figures for “N47: SEQ ID NO: 1 with N18R, deletion of positions 1-2, one amino acid added and PEG at the carboxyl terminal (VRFLAKENVTQDAEDRC-{PEG}; reading uncertain)”: 23.86 ± 3.61,*** %, 54.66 ± 4.73,* % and 179 ± 17,****.
Turning to “N48: SEQ ID NO: 1 with A7R, deletion of position 11 and position 18, PEG modification at the carboxyl terminal (YRVRFLRKENTQDAED-{PEG}; reading uncertain)”, the “Migration rate (%) (mean ± SD, P)” value in assay [1] was 25.07 ± 6.31,** %; in assay [3] it was 22.04 ± 3.01,*** %. Also, the “Number of cells (mean ± SD, P)” value in assay [2] is recorded as 374 ± 22,***.
On the same counts, the results for “N49: SEQ ID NO: 1 with A7R, deletion of positions 1-2 and position 18, PEG modification at the carboxyl terminal (VRFLRKENVTQDAED-{PEG}; reading uncertain)” are 29.37 ± 3.62,** %, 27.20 ± 6.23,** % and 137 ± 11,****.
On the same counts, the results for “N50: SEQ ID NO: 1 with N18R, addition of 2 amino acid at the carboxyl terminal, PEG modification at the amino terminal ({PEG}-YRVRFLAKENVTQDAEDRCT; reading uncertain)” are 31.05 ± 4.32,** %, 57.74 ± 4.39,* % and 192 ± 16,****.
On the same counts, the results for “N51: SEQ ID NO: 1 with A15R, one amino acid added at each terminal, PEG modification at the amino terminal ({PEG}-FYRVRFLAKENVTQDREDNC; reading uncertain)” are 30.04 ± 5.08,** %, 53.59 ± 5.62,* % and 306 ± 46,***.
On to “N52: SEQ ID NO: 1 with N18R, addition of two amino acids and PEG modification at the carboxyl terminal (YRVRFLAKENVTQDAEDRCT-{PEG}; reading uncertain)”, for which the “Migration rate (%) (mean ± SD, P)” value in assay [1] was 27.19 ± 5.67,** %; in assay [3], 56.03 ± 4.21,* %. Further, in assay [2], the “Number of cells (mean ± SD, P)” value is listed as 318 ± 37,***.
The matching figures for “N53: SEQ ID NO: 1 with A15R, one amino acid added at each terminal, PEG modification at the carboxyl terminal (FYRVRFLAKENVTQDREDNC-{PEG}; reading uncertain)”: 21.05 ± 6.60,** %, 58.05 ± 3.60,* % and 265 ± 32,****.
